{"source": "ChEMBL document CHEMBL1201862", "about": "“PubChem BioAssay data set” (2004)", "key": {"[1]": {"assay": "general mammalian cell viability loss – inhibitor set, cherry-pick, set 2, cytotoxicity control for miR-122 modulator project, dose response (AID 720697)", "type": "functional, cell-based"}, "[2]": {"biological_target": "T1, Oxysterols receptor LXR-beta (Homo sapiens, UniProt P55055)", "T1 sequence (P55055 whole entry)": "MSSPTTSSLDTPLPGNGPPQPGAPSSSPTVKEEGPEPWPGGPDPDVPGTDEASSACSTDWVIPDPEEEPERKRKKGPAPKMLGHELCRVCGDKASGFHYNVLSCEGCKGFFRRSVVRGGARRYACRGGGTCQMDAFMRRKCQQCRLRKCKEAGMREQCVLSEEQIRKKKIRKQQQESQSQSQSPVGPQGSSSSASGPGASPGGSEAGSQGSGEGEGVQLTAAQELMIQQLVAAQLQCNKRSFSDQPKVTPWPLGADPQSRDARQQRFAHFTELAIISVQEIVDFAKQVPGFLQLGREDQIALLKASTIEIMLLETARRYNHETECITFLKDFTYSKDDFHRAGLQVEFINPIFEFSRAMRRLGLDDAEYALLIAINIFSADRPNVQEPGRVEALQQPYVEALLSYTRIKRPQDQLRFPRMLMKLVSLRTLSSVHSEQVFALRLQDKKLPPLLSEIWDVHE", "type": "functional, cell-based"}, "[3]": {"assay": "HGIII-sPLA2 enzyme inhibition potency – biochemical, QFRET, IC50, dose response (AID 743457);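 further: green fluorescence rise as the enzyme cleaves BODIPY PC-A2 in liposomes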"}, "[4]": {"assay": "viability loss in HepG2 hepatoma cells – cell-based, ATP luminescence, cherry-pick, activator set 2, cytotoxicity control, dose response (AID 1053143)", "type": "functional"}, "[5]": {"assay": "general mammalian cell viability loss – activator set, cherry-pick, cytotoxicity control for miR-122 modulator project, dose response (AID 720690);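 further: HEK293T human cells scored for general mammalian cytotoxicity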", "type": "functional, cell-based"}, "Protein skinhead-1": {"biological_target": "T2, Protein skinhead-1 (Caenorhabditis elegans, UniProt P34707)", "T2 sequence (P34707 whole entry)": "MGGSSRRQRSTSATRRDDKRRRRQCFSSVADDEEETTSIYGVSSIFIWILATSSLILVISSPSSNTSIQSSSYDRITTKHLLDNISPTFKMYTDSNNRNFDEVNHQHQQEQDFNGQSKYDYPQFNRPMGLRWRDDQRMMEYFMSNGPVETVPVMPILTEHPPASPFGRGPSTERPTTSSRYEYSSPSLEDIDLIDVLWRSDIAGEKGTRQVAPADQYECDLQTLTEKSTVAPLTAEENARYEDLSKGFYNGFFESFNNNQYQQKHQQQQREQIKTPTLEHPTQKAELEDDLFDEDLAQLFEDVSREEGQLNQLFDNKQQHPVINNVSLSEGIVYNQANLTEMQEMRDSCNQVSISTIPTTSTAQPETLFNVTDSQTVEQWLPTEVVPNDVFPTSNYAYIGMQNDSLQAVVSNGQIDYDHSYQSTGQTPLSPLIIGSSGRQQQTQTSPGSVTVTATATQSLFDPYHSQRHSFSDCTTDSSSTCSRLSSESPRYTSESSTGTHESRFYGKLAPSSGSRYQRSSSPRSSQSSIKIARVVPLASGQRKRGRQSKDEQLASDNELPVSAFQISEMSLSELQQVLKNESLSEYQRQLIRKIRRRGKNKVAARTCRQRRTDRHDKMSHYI", "type": "functional"}, "[6]": {"assay": "toxicity to human hepatoma HepG2 cells – cell-based, cherry-picked samples, cytotoxicity control, dose response (AID 1159577)", "type": "functional"}, "[7]": {"assay": "P. falciparum Dd2 growth inhibitors, dose response, SYBR Green, cherry-picked samples (AID 1159567)", "type": "functional, cell-based"}}, "note": "The source made the active and inactive calls."}
{"smiles": "COc1ccc(CC(NC(C)=O)C(=O)N2CCN(C(=O)N(C(C)C)C(C)C)CC2)cc1", "note": "(configuration not stated)", "values": [{"measurement": "AC50", "setting": "[1]", "value": "0.834 µM (active)"}]}
{"smiles": "C/C(=N/N=C(/C)c1cccs1)c1cccs1", "values": [{"measurement": "EC50", "setting": "cells", "value": "> 67.6 µM (inactive)"}, {"measurement": "EC50", "setting": "[2]", "value": "> 67.6 µM (inactive)"}]}
{"smiles": "O=C(NNC(=S)Nc1ccc(Br)cc1)c1cccnc1", "values": [{"measurement": "IC50", "setting": "[3]", "value": "> 122 µM (inactive)"}]}
{"smiles": "Cc1ccc(C(=O)Nc2ncc(Cc3ccc(F)cc3)s2)o1", "values": [{"measurement": "AC50", "setting": "[4]", "value": "12 µM (active)"}]}
{"smiles": "CNC[C@H]1Oc2cc(C#CC3CCCC3)ccc2S(=O)(=O)N([C@H](C)CO)C[C@H]1C", "values": [{"measurement": "AC50", "setting": "[5]", "value": "30.9 µM (active)"}]}
{"smiles": "Fc1cccc(F)c1/C=C/c1ccc2ccccc2n1", "values": [{"measurement": "EC50", "setting": "cells", "value": "> 67.5 µM (inactive)"}, {"measurement": "IC50", "setting": "Protein skinhead-1", "value": "36.8 µM (active)"}, {"measurement": "EC50", "setting": "[2]", "value": "> 67.5 µM (inactive)"}]}
{"smiles": "CN(C)CC(=O)N[C@@H]1C[C@@H]2O[C@@H](CO)CC[C@@H]2O[C@@H]1CCc1ccc(C2=CCCCC2)cc1", "values": [{"measurement": "AC50", "setting": "[6]", "value": "27.7 µM (active)"}, {"measurement": "AC50", "setting": "[7]", "value": "6.13 µM (active)"}]}
{"smiles": "CC(=O)CC1(O)C(=O)N(Cc2ccccc2)c2ccccc21", "note": "(configuration not stated)", "values": [{"measurement": "AC50", "setting": "[4]", "value": "> 52 µM (inactive)"}]}
